Source: ChEMBL document CHEMBL1147543, “Styrylheterocycles as a novel class inhibitor of cyclooxygenase-2-mediated prostaglandin E(2) production” (Bioorg Med Chem Lett, 2004)

Test system: RAW264.7
Assay: Inhibitory effect on PGE-2 production in LPS-stimulated RAW264.7 cells
Format: functional, cell-based
Conditions: Mus musculus

| IC50 [µM] | SMILES |
| --- | --- |
| > 33.3 | COc1cc(/C=C/c2cc(OC)cc(OC)c2)cc(OC)c1 |
| 7.4 | COc1cc(/C=C/c2cc(OC)c(OC)cc2OC)cc(OC)c1 |
| 4 | Oc1ccc(/C=C/c2cc(O)cc(O)c2)cc1 [RESVERATROL] |
